We go through four molecules from patent US11304944B2, “MetAP2 inhibitors and methods of treating obesity” (SynDevRx, Inc., priority 2013, dated 2022).

For series [1], the system named is DIO Levin rats. In words: In vivo testing DIO Levin rats: weight changes, food consumption, insulin, leptin levels. As to the method: CKD-732 as referred to herein is the hemitartrate salt of the following structure:
Test articles were administered subcutaneously on an every 4 day (q4d) schedule in a diet-induced obesity (DIO) Levin-DS rat model. […] A dietary intervention (Standard Chow, Labdiet 5001; 3.4 kcal/g) was included to compare to the drug interventions. Upon arrival at three weeks of age, the male rats received ad libitum pellets of Harlan Diet TD.06414, 60% of calories from fat, 21% of calories from carbohydrate; 5.1 kcal/g. Prior to dosing the rats were randomized into groups of three animals with an average body weight of 595 gm. […] Compound 1 in the form of the hemitartrate and CKD-732 in the form of the hemitartrate were dissolved in ethanol prior to dilution with vehicle. All doses were administered at a volume of 5.0 ml/kg. […] On day 1, first dose, the rats were 14 weeks of age. Also on day 1, Group 2 was switched from the high fat diet to a standard chow diet; the remaining groups were maintained on a high fat diet for the duration of the study.
(§1) Animals were weighed every other day. Food consumption was measured weekly. On an approximately weekly basis throughout the study, blood samples were taken for assessment of serum chemistries including glucose and insulin. On Day 48 all rats underwent a 4 hour fasted Oral Glucose Tolerance Test (OGTT). Animals were dosed orally (per os, PO) at 8 mL/kg 25% glucose (2 g/kg). On day 68, gross pathology was performed to determine body composition.

Series [2] relates to DIO Levin rats. The series is described as follows: Oral Glucose Tolerance Test (OGTT) Day 48 and HOMA-ir in DIO Levin rats.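 As to Blood Glucose pre-OGTT: blood glucose in mg/dL.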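 As to Blood Glucose, Time 120: blood glucose in mg/dL.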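 As to Blood Glucose, Time 15: blood glucose in mg/dL.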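 As to Blood Glucose, Time 30: blood glucose in mg/dL.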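 As to Blood Glucose, Time 60: blood glucose in mg/dL.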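 As to Blood Glucose, Time 90: blood glucose in mg/dL.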 The format is in vivo. The settings on record: 1.15 mg/kg q4d sc. As for the experimental part:
as §1

The subject of series [3] is DIO C57Bl/6 mice. The series is described as follows: In vivo testing DIO mice schedule-dose response: weight, food intake, ipGTT, HOMA-ir data. As for the experimental part:
Animals were dosed according to the schedule in Table 17 below.
Compound dosing occurred between 9 and 10 am on the day of dosing. Groups 6 and 7 received a total of 17 doses. The q4d groups (1, 2, 3, 4, 8, 9) received a total of 9 doses. The q8d group (5) received a total of 5 drug doses. Body weight and food intake were measured every other day. Blood glucose was measured on Day −7, Day 0, Day 7, Day 14, Day 21 and Day 28 at 9:00 am in fed state (BG measured before dose on dosing days). BG was measured by glucometer. An intraperitoneal glucose tolerance test (ipGTT, 6 h fasting) was performed.
The study was terminated on day 34. Liver and epididymal white adipose tissues (eWAT) were harvested, weighed and stored at −80° C. Sera was collected to determine: AST, ALT, ALP, CK, BUN, creatinine, calcium, potassium, sodium, chloride, total protein, albumin, total bilirubin, glucose, triglyceride and cholesterol. Insulin samples were measured using a commercial kit.

For series [4] the following is noted: cited from earlier work.
The subject of series [5] is DIO C57Bl6 mice. In words: In vivo testing DIO C57Bl6 mice: weight changes, food consumption, body composition (Compound 16 vs TNP-470). As for the experimental part:
C57Bl6 male mice (N=6) thirteen weeks old with an average of weight of 34 g were ad libitum fed TD.06414 a high fat diet composed of 60% Kcal from fat (Harlan diet). On study day 1 animals were randomized into groups so that the average weight of each group was 33.9 g. […] Animals were weighed every other day. Food consumption was measured weekly. On day 33 gross pathology was performed to determine body composition.

Series [6] has as its system DIO C57Bl6 mice. The series is described as follows: Efficacy of various compounds in DIO mouse model (body weight versus time). It counts as in vivo. The settings on record: 2 mg/kg q4d sc; for BW change vs. vehicle: day 26. As to the method: On study day 1 animals were randomized into groups so that the average weight of the mice in each group was 47 g. The mice were treated with either phosphate buffered saline (vehicle), or compounds as listed in Table 19 dissolved in vehicle (dorsal, subcutaneous administration).

[7] abbreviates: qod (Cmpd 16 1 mg/kg qod), Day 33.

Like-named read-outs stand apart in the source and are kept apart here.

`COC1C(OC(=O)/C=C/c2ccc(OCCN(C)C)cc2)CC[C@]2(CO2)C1[C@@]1(C)O[C@@H]1CC=C(C)C` (stereo partly drawn) [CKD-732, reference compound]: the “lower body weight than vehicle” value in series [1] (1.15 mg/kg Q4D) was found to be 3.2%. In series [1] (1.15 mg/kg q4d sc), the “Avg. Insulin Day 7” value is given as 2.08 ng/mL, the “Avg. Insulin Day 15” value is listed as 1.91 ng/mL, the “Avg. Insulin Day 23” value is reported as 1.60 ng/mL and the “Avg. Insulin Day 48” value is 1.56 ng/mL. In addition, in series [1] (1.15 mg/kg q4d sc), the “Avg. Insulin Pre-dosing” value worked out at 2.58 ng/mL, the “Group Average Food Consumption Day 1-8” value was 131.8 g, the “Group Average Food Consumption Day 9-15” value was 110.5 g and the “Group Average Food Consumption Day 16-23” value is 108.7 g. Further, in series [1] (1.15 mg/kg q4d sc), the “Group Average Food Consumption Day 24-30” value turned out to be 133.9 g, the “Group Average Food Consumption Day 31-36” value turned out to be 153.9 g, the “Group Average Food Consumption Day 37-43” value is reported as 148.7 g and the “Group Average Food Consumption Day 44-50” value turned out to be 112.3 g. Besides, in series [1] (1.15 mg/kg q4d sc), the “Group Average Food Consumption Day 51-57” value turned out to be 135.0 g, the “Group Average Food Consumption Day 58-63” value is on record as 125.5 g, the “Group Average Food Consumption Day 63-68” value was found to be 61.9 g and the “Leptin Levels Day 29” value came to 4.30. Also, in series [1] (1.15 mg/kg q4d sc), the “Leptin Levels Pre-dose” value came to 4.43 and the “Leptin Levels, Day 29, % Change from Baseline” value is listed as −3.0%. In series [1] (1.15 mg/kg q4d sc, after 68 days, 60% fat diet), the “Final BW” value came out at 714.0 g. Further, in series [2], the “Blood Glucose pre-OGTT” value amounted to 123 mg/dL, the “HOMA-ir (Insulin Sensitivity) 15 min” value came to 49.0, the “HOMA-ir (Insulin Sensitivity) 30 min” value turned out to be 35.9 and the “HOMA-ir (Insulin Sensitivity) Pre-dose” value amounted to 13.6. For the same molecule, in series [2] (OGTT), the “Blood Glucose, Time 15” value came to 174 mg/dL; the “Blood Glucose, Time 30” value was 171 mg/dL; the “Blood Glucose, Time 60” value turned out to be 158 mg/dL; the “Blood Glucose, Time 90” value was 153 mg/dL. Also, the “Blood Glucose, Time 120” value in series [2] (OGTT) was found to be 144 mg/dL. Besides, the BW in series [2] (at OGTT) is on record as 686 g. Further, in series [3] (1 mg/kg Q2D), the “Glucose, ipGTT 0 min” value was 161.3 mg/dL; the “Glucose, ipGTT 15 min” value was 469.2 mg/dL; the “Insulin, ipGTT 0 min” value is recorded as 54.8 uU/ml; the “Insulin, ipGTT 15 min” value came out at 89.3 uU/ml. For the same molecule, in series [3] (2 mg/kg q4d), the “Glucose, ipGTT 0 min” value was found to be 182.6 mg/dL; the “Glucose, ipGTT 15 min” value is 498.6 mg/dL; the “Insulin, ipGTT 0 min” value stood at 99.8 uU/ml; the “Insulin, ipGTT 15 min” value was found to be 118.3 uU/ml. Also, the “response (weight loss) by schedule” value in series [3] (Q2D (QOD) schedule versus Q4D, FIG. 20) was “better response than the same average daily dose administered on a Q4D schedule”. The MTD in series [4] (every fourth day schedule, due to confusion and insomnia) is given as 15 mg/m2/day.
In series [5] (0.5 mg/kg/day, qod, sc), `CO[C@@H]1[C@H](OC(=O)NC(=O)CCl)CC[C@]2(CO2)[C@H]1[C@@]1(C)O[C@@H]1CC=C(C)C` [TNP-470, chloroacetylcarbamoylfumagillol, reference compound] showed a Body Weight Day 33 of 34.1 g. Besides, in series [5] (setting [7]), the B.W. is 34.1 grams, the “Epididymal Fat” value turned out to be 1.54 grams, the “Inguinal Fat” value worked out at 1.21 grams and the Liver is recorded as 1.15 grams. In series [5] (setting [7]), the “Retroperitoneal Fat” value stood at 0.80 grams and the “Total Fat” value turned out to be 3.55 grams. In addition, the MTD in series [4] (in combination with paclitaxel, dosed three times per week) is 60 mg/m2.
With “poly[HPMA-co-MA-GFLG-N-(cis-4-aminocyclohexyl)carbamoylfumagillol] [Compound cis-16]”, in series [6], the “Group Avg. BW, Study Day 1” value is on record as 47.0 g; the “Group Avg. BW, Study Day 7” value stood at 42.7 g; the “Group Avg. BW, Study Day 15” value is 42.6 g; the “Group Avg. BW, Study Day 21” value worked out at 40.9 g. In addition, in series [6], the “Group Avg. BW, Study Day 26” value was determined as 40.6 g and the “BW change vs. vehicle” value is on record as −12.0%.
Take “poly[HPMA-co-MA-GFLG-NH-2-[(2-(2-aminoethoxy)ethoxy)ethyl]carbamoylfumagillol] [Compound bb]”: in series [6], the “Group Avg. BW, Study Day 1” value turned out to be 47.0 g; the “Group Avg. BW, Study Day 7” value was found to be 43.6 g; the “Group Avg. BW, Study Day 15” value is reported as 43.9 g; the “Group Avg. BW, Study Day 21” value turned out to be 42.2 g. Also, in series [6], the “Group Avg. BW, Study Day 26” value is recorded as 42.5 g and the “BW change vs. vehicle” value was −7.8%.
